In patent US6620828B2, “Thiazole compounds and pharmaceutical compositions for inhibiting protein kinases and methods for their use” (Agouron Pharmaceuticals, Inc., priority 1999, dated 2003):
pKi: −log10 of the molar value. Several values for one entry are separate records, joined by “and”; a condition that tells them apart may be missing. Equal values may be shown once.

Key:
[1] = target: T1, phosphorylated VEGF-R2Δ50 (FLVK-P) (Homo sapiens, UniProt P35968, DEL940-989/E990V); assay: VEGF-R2 coupled spectrophotometric (FLVK-P) assay; assay type: biochemical; details: Table 2; spectrophotometric assay
T1 construct: VEGF-R2Δ50 contains residues 806-939 and 990-1171; made in house; host or cells: baculovirus/insect cells
Outline: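 Baculovirus-expressed human VEGF-R2Δ50 (residues 806-939/990-1171, E990V) was autophosphorylated with 3 mM ATP, 40 mM MgCl2 for 2 h at 4° C. ADP formation was coupled via PK/LDH to NADH oxidation, read at 340 nm, with 5.1 mM poly(E4Y1), 1 mM ATP, 25 mM MgCl2, Hepes pH 7.5. Ki came from activity across compound concentrations.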

FGF-R1 = target: T2, FGF-R1 (Homo sapiens, UniProt P11362, C488A/C584S/L457V); assay: FGF-R spectrophotometric assay; assay type: biochemical; details: Table 2
T2 construct: starting from the endogenous methionine residue 456 to glutamate 766; made in house; host or cells: baculovirus vector expression system
Outline: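 Kinase domain (Met456–Glu766, baculovirus-expressed) used at 50 nM in a spectrophotometric assay run as for VEGF-R2. Substrates were 2 mM ATP and 15 mM poly(E4Y1).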

CHK1 = target: T3, CHK1 (Homo sapiens, UniProt O14757); assay: CHK1 high-throughput screening; assay type: biochemical; details: read-out: % inhibition @ 20 μM, Table 4, repeated entries per example
T3 sequence (O14757 1-476): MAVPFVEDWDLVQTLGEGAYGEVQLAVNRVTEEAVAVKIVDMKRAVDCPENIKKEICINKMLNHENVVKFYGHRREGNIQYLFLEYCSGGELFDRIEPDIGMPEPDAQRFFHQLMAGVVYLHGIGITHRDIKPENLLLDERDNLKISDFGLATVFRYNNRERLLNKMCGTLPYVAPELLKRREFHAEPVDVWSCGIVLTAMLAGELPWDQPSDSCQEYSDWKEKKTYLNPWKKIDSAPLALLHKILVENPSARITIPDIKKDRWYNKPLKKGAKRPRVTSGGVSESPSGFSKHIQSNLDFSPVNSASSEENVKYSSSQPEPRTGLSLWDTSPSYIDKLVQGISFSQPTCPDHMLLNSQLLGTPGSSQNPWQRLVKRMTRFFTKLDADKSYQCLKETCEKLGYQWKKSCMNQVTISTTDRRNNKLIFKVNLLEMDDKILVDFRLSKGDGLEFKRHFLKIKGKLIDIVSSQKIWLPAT

FAKcd409 = target: T4, FAKcd409 (Homo sapiens, UniProt Q05397, P410T); assay: FAK HTS assay; assay type: biochemical; details: 10 uM compound, HTS Delphia assay; 10 µM
T4 construct: comprises residues methionine 409 to glutamate 689; made in house; host or cells: baculovirus vector expression system
T4 sequence (Q05397 409-689 P410T): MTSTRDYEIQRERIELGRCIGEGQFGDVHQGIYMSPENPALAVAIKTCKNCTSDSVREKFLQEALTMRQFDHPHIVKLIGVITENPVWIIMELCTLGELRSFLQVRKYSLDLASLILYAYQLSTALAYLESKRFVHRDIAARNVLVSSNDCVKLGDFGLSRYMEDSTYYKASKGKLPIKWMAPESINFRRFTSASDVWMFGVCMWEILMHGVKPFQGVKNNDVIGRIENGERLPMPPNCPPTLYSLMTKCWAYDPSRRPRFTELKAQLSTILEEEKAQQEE

T1 sequence (P35968 with tags, fused parts or gaps DEL940-989/E990V limits assumed): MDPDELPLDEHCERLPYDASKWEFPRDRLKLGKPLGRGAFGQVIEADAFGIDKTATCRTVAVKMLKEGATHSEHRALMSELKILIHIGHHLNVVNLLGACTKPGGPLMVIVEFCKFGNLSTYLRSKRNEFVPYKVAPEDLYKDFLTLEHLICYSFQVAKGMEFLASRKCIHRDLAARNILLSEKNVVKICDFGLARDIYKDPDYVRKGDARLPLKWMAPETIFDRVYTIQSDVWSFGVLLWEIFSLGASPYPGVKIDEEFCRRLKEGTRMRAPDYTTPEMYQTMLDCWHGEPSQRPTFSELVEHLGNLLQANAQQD
T2 sequence (P11362 456-766 L457V/C488A/C584S): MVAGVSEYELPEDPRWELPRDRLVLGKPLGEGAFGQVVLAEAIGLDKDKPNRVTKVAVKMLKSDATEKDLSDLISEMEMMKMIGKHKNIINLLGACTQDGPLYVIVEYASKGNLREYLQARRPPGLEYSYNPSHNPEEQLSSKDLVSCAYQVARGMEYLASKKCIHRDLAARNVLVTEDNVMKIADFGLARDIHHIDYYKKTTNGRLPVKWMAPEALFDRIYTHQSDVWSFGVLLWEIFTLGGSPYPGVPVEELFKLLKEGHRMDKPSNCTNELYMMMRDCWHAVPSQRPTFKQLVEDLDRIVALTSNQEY

melting point [°C]	pKi [1]	pKi (FGF-R1)	inhibition at 20 µM (CHK1) [%]	% inhibition of FAK (FAKcd409)	SMILES
226 to 230	8.52	5.62			COc1cc(Nc2nc(N)c(-c3nc(-c4cccc(O)c4)cs3)s2)cc(OC)c1OC [A(17), 3-[4′-Amino-2′-(3,4,5-trimethoxy-phenylamino)-[2,5′]bithiazolyl-4-yl]-phenol]
	7.11		7.1	−6% and −11% and −8%	CCCNc1nc(N)c(-c2nc(-c3cccc(O)c3)cs2)s1 [A(29), 3-(4′-Amino-2′-propylamino-[2,5′]bithiazolyl-4-yl)-phenol]
	8.22				COc1cc(Nc2nc(N)c(-c3nc(-c4cccc(O)c4)no3)s2)cc(OC)c1OC [K(1), 3-{5-[4-Amino-2-(3,4,5-trimethoxy-phenylamino)-thiazol-5-yl]-[1,2,4]oxadiazol-3-yl}-phenol]
